Test results reported in US10487088B2, “Tricyclic compound serving as immunomodulator” (Chia Tai Tianqing Pharmaceutical Group Co., Ltd., priority 2016, dated 2019).

Target: T1, recombinant human IDO1 enzyme (Homo sapiens, UniProt P14902)
T1 construct: purchased NTRC NTRC-hlDO-10K
Assay: In vitro hIDO1 enzyme activity test (NFK Green fluorescence)
Format: biochemical
Conditions: recombinant human IDO1, L-tryptophan substrate, pH 6.5
Experimental: The change of NFK production was detected by using the NFK Green™ fluorescent molecule, which is the metabolite of the IDO1 enzyme, and the IC50 value of the compound was used as an index, to evaluate the inhibitory effect of the compound on the recombinant human IDO1 enzyme.
IDO1 Enzyme Activity Assay Kit, NTRC # NTRC-hlDO-10K;
The compound was diluted to 1 mM in DMSO, and then diluted 3-fold in duplicate wells, with 10 gradients. 48 μL of 50 mM phosphate buffer (pH 6.5) was transferred to the compound plate via Bravo automated liquid handling platform. 2 μL of the diluted solution of the compound in DMSO was then added and mixed, followed by transferring 10 μL therein to an enzyme reaction plate.
The IDO1 enzyme was diluted to 20 nM in the reaction buffer (50 mM phosphate buffer pH 6.5, 0.1% Tween-20, 2% glycerol, 20 mM ascorbic acid, 20 μg/mL catalase and 20 μM methylene blue), and 20 μL of the solution was transferred to an enzyme reaction plate and incubated at 23° C. for 30 min. The reaction was started by adding 10 μL of 400 μM L-type tryptophan substrate and incubated at 23° C. for 90 min. 10 μL of NFK Green™ fluorescent dye was added, and the plate was sealed with the sealing film, incubated at 37° C. for 4 h, and then read on Envision Multimode Plate Reader (Ex 400 nm/Em 510 nm).
The control wells with the IDO1 enzyme but no compound was set as 0% inhibition, and the control wells without the IDO1 enzyme was set as 100% inhibition, and the IC50 value of the compound was calculated by analyzing the data with XLFit 5.

T1 sequence (P14902 whole entry): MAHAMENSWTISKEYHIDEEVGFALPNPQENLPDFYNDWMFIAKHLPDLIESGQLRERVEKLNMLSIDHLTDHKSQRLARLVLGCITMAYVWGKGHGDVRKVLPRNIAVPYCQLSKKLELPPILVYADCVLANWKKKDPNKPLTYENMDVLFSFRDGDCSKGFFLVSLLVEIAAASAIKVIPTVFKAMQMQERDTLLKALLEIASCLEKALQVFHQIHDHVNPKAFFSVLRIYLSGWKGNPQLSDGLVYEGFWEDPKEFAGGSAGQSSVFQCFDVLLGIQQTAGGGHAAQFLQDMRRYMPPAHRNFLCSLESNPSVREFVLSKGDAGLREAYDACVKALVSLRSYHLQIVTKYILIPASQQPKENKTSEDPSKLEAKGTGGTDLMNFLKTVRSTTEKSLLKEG

Row | SMILES | IC50 [nM]
1 | c1ccc2c(c1)CCC(C1c3sccc3-c3cncn31)C2 (single isomer, unassigned) [Example 55, 8-tetrahydronaphthalen-2-yl-8H-thieno[3,4]pyrrolo[1,5-a]imidazole] | > 10000
2 | c1ccc2c(c1)CCC(C1c3sccc3-c3cncn31)C2 (single isomer, unassigned) [Example 56, 8-tetrahydronaphthalen-2-yl-8H-thieno[3,4]pyrrolo[1,5-a]imidazole] | 851
3 | c1ccc2c(c1)CCC(C1c3sccc3-c3cncn31)C2 (single isomer, unassigned) [Example 57, 8-tetrahydronaphthalen-2-yl-8H-thieno[3,4]pyrrolo[1,5-a]imidazole] | 886
4 | OC1CC(C2c3sccc3-c3cncn32)C1 (single isomer, unassigned) [Example 58, 3-(8H-thieno[3,4]pyrrolo[1,5-a]imidazol-8-yl)cyclobutanol] | 2100
5 | OC1CC(C2c3sccc3-c3cncn32)C1 (single isomer, unassigned) [Example 59, 3-(8H-thieno[3,4]pyrrolo[1,5-a]imidazol-8-yl)cyclobutanol] | > 10000
6 | OC1CC(C2c3sccc3-c3cncn32)C1 (single isomer, unassigned) [Example 60, 3-(8H-thieno[3,4]pyrrolo[1,5-a]imidazol-8-yl)cyclobutanol] | > 10000
7 | OC1CC(C2c3sccc3-c3cncn32)C1 (single isomer, unassigned) [Example 61, 3-(8H-thieno[3,4]pyrrolo[1,5-a]imidazol-8-yl)cyclobutanol] | 1200
8 | OC1CCCC(C2c3sccc3-c3cncn32)C1 (single isomer, unassigned) [Example 64, 3-(8H-thieno[3′,2′:3,4]pyrrolo[1,2-c]imidazol-8-yl)cyclohexanol] | > 10000
9 | OC1CCCC(C2c3sccc3-c3cncn32)C1 (single isomer, unassigned) [Example 65, 3-(8H-thieno[3′,2′:3,4]pyrrolo[1,2-c]imidazol-8-yl)cyclohexanol] | 5530
10 | OC1CCCC(C2c3sccc3-c3cncn32)C1 (single isomer, unassigned) [Example 66, 3-(8H-thieno[3′,2′:3,4]pyrrolo[1,2-c]imidazol-8-yl)cyclohexanol] | > 10000
11 | OC1CCCC(C2c3sccc3-c3cncn32)C1 (single isomer, unassigned) [Example 67, 3-(8H-thieno[3′,2′:3,4]pyrrolo[1,2-c]imidazol-8-yl)cyclohexanol] | 162
12 | OC1CCCC(C2c3sccc3-c3cncn32)C1 (single isomer, unassigned) [Example 68, 3-(8H-thieno[3′,2′:3,4]pyrrolo[1,2-c]imidazol-8-yl)cyclohexanol] | 1830
13 | OC1CCCC(C2c3sccc3-c3cncn32)C1 (single isomer, unassigned) [Example 69, 3-(8H-thieno[3′,2′:3,4]pyrrolo[1,2-c]imidazol-8-yl)cyclohexanol] | 2320
14 | OC1CCCC(C2c3sccc3-c3cncn32)C1 (single isomer, unassigned) [Example 70, 3-(8H-thieno[3′,2′:3,4]pyrrolo[1,2-c]imidazol-8-yl)cyclohexanol] | 1090
15 | OC1CCCC(C2c3sccc3-c3cncn32)C1 (single isomer, unassigned) [Example 71, 3-(8H-thieno[3′,2′:3,4]pyrrolo[1,2-c]imidazol-8-yl)cyclohexanol] | > 10000
16 | c1cc2c(s1)C(C1CCCC1)n1cncc1-2 (single isomer, unassigned) [Example 74, 8-cyclopentyl-8H-thieno[3,4]pyrrolo[1,5-a]imidazole] | 257

Row | SMILES | IC50 [nM]
17 | c1cc2c(s1)C(C1CCCC1)n1cncc1-2 (single isomer, unassigned) [Example 75, 8-cyclopentyl-8H-thieno[3,4]pyrrolo[1,5-a]imidazole] | > 10000
18 | FC1(F)[C@@H]2C[C@H](C3c4sccc4-c4cncn43)C[C@@H]21 (single isomer, unassigned) [Example 76, 8-(6,6-difluoro-3-bicyclo[3.1.0]cyclohexyl)-8H-thieno[3,4]pyrrolo[1,5-a]imidazole (cis)] | 883
19 | CC1(C)CC(C2c3sccc3-c3cncn32)CCO1 (single isomer, unassigned) [Example 78, 8-(2,2-dimethyltetrahydropyran-4-yl)-8H-thieno[3,4]pyrrolo[1,5-a]imidazole] | > 10000
20 | CC1(C)CC(C2c3sccc3-c3cncn32)CCO1 (single isomer, unassigned) [Example 79, 8-(2,2-dimethyltetrahydropyran-4-yl)-8H-thieno[3,4]pyrrolo[1,5-a]imidazole] | > 10000
21 | CC1(C)CC(C2c3sccc3-c3cncn32)CCO1 (single isomer, unassigned) [Example 80, 8-(2,2-dimethyltetrahydropyran-4-yl)-8H-thieno[3,4]pyrrolo[1,5-a]imidazole] | 5050
22 | CC1(C)CC(C2c3sccc3-c3cncn32)CCO1 (single isomer, unassigned) [Example 81, 8-(2,2-dimethyltetrahydropyran-4-yl)-8H-thieno[3,4]pyrrolo[1,5-a]imidazole] | 8270
23 | OC1CCCCC1C1c2sccc2-c2cncn21 (single isomer, unassigned) [Example 82] | 1550
24 | OC1CCCCC1C1c2sccc2-c2cncn21 (single isomer, unassigned) [Example 83] | 1270
25 | OC1CCCCC1C1c2sccc2-c2cncn21 (single isomer, unassigned) [Example 84] | 454
26 | c1ccc(N2CCC(C3c4sccc4-c4cncn43)CC2)cc1 (single isomer, unassigned) [Example 86, 8-(1-phenylpiperidin-4-yl)-8H-thieno[3′,2′:3,4]pyrrolo[1,2-c]imidazole] | 545
27 | c1ccc(N2CCC(C3c4sccc4-c4cncn43)CC2)cc1 (single isomer, unassigned) [Example 87, 8-(1-phenylpiperidin-4-yl)-8H-thieno[3′,2′:3,4]pyrrolo[1,2-c]imidazole] | > 10000
28 | c1ccc(C2CCC(C3c4sccc4-c4cncn43)CC2)cc1 (single isomer, unassigned) [Example 88, 8-(4-phenylcyclohexyl)-8H-thieno[3′,2′:3,4]pyrrolo[1,2-c]imidazole] | 478
29 | c1ccc(C2CCC(C3c4sccc4-c4cncn43)CC2)cc1 (single isomer, unassigned) [Example 89, 8-(4-phenylcyclohexyl)-8H-thieno[3′,2′:3,4]pyrrolo[1,2-c]imidazole] | > 10000
30 | Cc1cc2c(s1)C(C1CCCCC1)n1cncc1-2 (single isomer, unassigned) [Example 90, 8-cyclohexyl-2-dimethyl-8H-thieno[3′,2′:3,4]pyrrolo[1,2-c]imidazole] | > 10000
31 | Cc1cc2c(s1)C(C1CCCCC1)n1cncc1-2 (single isomer, unassigned) [Example 91, 8-cyclohexyl-2-dimethyl-8H-thieno[3′,2′:3,4]pyrrolo[1,2-c]imidazole] | 6750
32 | c1ccc2c(C3CCC(C4c5sccc5-c5cncn54)CC3)ccnc2c1 (single isomer, unassigned) [Example 92, 5-(4-(quinolin-4-yl)cyclohexyl)-8H-thieno[3′,2′:3,4]pyrrolo[1,2-c]imidazole] | 686
